In patent US7557085B2, “Metabolic-based methods for modulating gene expression” (Wisconsin Alumni Research Foundation, priority 2005, dated 2009):
Read-outs that look alike come from different tables or passages of the source. One block for each molecule: values may come before it.

Experiments:
NRSF mediated repression = experiment: gal4-NRSF luciferase reporter (G5-TATA-Luc) in JTC-19 cells; type: cell-based, rat
CtBP2 binding to NRSF [1] = target: T1, CtBP2 binding to NRSF (Mus musculus, UniProt P56546); experiment: immunoprecipitation of MYC-NRSF with KT3-CtBP2 from HEK cells at NADH concentrations
T1 construct: expressed in transfected cells; host or cells: HEK-293 cells
T1 sequence (P56546 whole entry): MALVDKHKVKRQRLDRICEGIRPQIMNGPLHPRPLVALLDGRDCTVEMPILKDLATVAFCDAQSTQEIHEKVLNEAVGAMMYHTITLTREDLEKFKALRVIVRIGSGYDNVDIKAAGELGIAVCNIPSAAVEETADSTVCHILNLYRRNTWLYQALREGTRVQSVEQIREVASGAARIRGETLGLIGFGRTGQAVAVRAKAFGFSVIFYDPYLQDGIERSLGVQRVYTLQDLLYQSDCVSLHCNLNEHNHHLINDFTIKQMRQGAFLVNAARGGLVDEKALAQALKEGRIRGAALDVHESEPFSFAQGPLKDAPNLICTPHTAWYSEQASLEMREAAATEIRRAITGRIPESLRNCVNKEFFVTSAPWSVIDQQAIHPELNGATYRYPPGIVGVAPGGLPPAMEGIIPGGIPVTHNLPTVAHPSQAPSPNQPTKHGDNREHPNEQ
Experimental: Protein was harvested, incubated with the indicated concentrations of NADH and immunoprecipitated with anti-KT3 antibody or anti-Jun antibody as sham. Immune complexes were subjected to Western blot analysis with anti-MYC antibody.
As NADH concentrations regulate CtBP2 binding to a number of transcription factors (see Zhang et al., 2002, Id.; Mirnezami et al., 2003, Id.; Kim et al., 2005, Nat Struct Mol Biol 12: 423-8) and the non-NADH binding G189A CtBP mutant abolishes metabolic sensitivity of NRSF function, CtBP2 binding to NRSF was tested as a function of NADH concentration. In these experiments, HEK cells were co-transfected with plasmids expressing MYC-tagged NRSF or KT3-tagged CtBP2 as described above. Protein was harvested, incubated with NADH at concentrations from 0-1000 nM and immunoprecipitated with anti-KT3 antibody or anti-Jun antibody as sham. Immune complexes were subjected to Western blot analysis using an anti-MYC antibody conjugated with horseradish peroxidase as described above and in Roopra et al. (2004, Id.). […] Half maximal binding occurred at a physiologically relevant concentrations of ˜70 nM (data not shown).

CtBP2 binding to NRSF [2] = target: T2, CtBP2 binding to NRSF (Homo sapiens, UniProt P56545); experiment: binding of recombinant 6x-HIS-CtBP2 to immunopurified MYC-tagged NRSF with NADH; details: recombinant CtBP2 pre-incubated with NADH
T2 construct: made in house
Experimental: Immunoprecipitation experiments were performed to examine CtBP2/NRSF binding and the effect of increasing NADH concentration on such binding. In these experiments, soluble recombinant 6×-HIS-tagged CtBP2 (produced using the Qiagen Expression System, Qiagen, Valencia, Calif., according to the manufacturer's instructions) was pre-incubated with indicated concentrations of NADH and then added to immunopurified, antibody and bead bound MYC-tagged NRSF protein (Roopra et al., 2000, Id.) while maintaining the appropriate NADH concentration. The resulting complexes were harvested, washed and subjected to Western blot analysis with an antibody to the 6×-HIS tag on CtBP2 (Qiagen). CtBP2 binding to NRSF is abrogated in the presence of NADH, showing that the NRSF-CtBP2 interaction is sensitive to NADH concentration.

Structure (SMILES): [Cl-].[Cl-].[Co+2] [CoCl2, reference compound]
- repression of luciferase reporter gene expression by NRSF (fold repression gal4 DBD/gal4-NRSF) (NRSF mediated repression): decreased repression

- IC50 (CtBP2 binding to NRSF [1]; HEK cell protein incubated with NADH 0-1000 nM, data not shown, read-out: NADH concentration of half maximal binding of CtBP to NRSF): ~70 nM
- effect on binding of CtBP to NRSF (CtBP2 binding to NRSF [1]; increasing concentrations of NADH, 0-1000 nM, dose dependent): disrupted binding
- CtBP2 binding to NRSF (CtBP2 binding to NRSF [2]): abrogated
Structure (SMILES): NC(=O)C1=CN([C@@H]2O[C@H](COP(=O)(O)OP(=O)(O)OC[C@H]3O[C@@H](n4cnc5c(N)ncnc54)[C@H](O)[C@@H]3O)[C@@H](O)[C@H]2O)C=CC1 [NADH]

Structure (SMILES): O=C(O)CC(O)(CC(=O)O)C(=O)O [citrate, reference compound]
- repression of luciferase reporter gene expression by NRSF (fold repression gal4 DBD/gal4-NRSF) (NRSF mediated repression; JTC-19 cells, 16 hrs): increased repression
